Results: patent US20050014734A1 (Genovate Biotechnology Co., Ltd., priority 2003, published 2005)
“Also recorded” adds a separate entry of the source. Where two headings read alike, the source gives them in different places.

Experiments:
[1] = oral administration; cited from earlier work
[2] = polymorph; cited from earlier work
IL-1β = assay: Serum IL-1β by ELISA in the same SLE study; assay type: in vivo, human; conditions: after 24 weeks of 200 mg/day DHEA orally, mean ± SD, n = 15, before treatment 9.94 ± 8.92
Procedure: (§1) Baseline prednisone (less than 10 mg/day) and other concomitant SLE medications were held constant. The serum levels of cytokines including IL-1, IL-2, interferon-γ, IL-4, and IL-10 were determined by ELISA. The mean change from baseline to 24 weeks of therapy was analyzed. See, below.
(§2) See, Chang et al., Arthritis Rheum., 2002, 46(11):2924-27. The subjects enrolled in the study were adult women with SLE according to American College of Rheumatology (ACR) criteria (see, e.g., Tan, et al., Arthritis Rheum., 1982, 25:1271-7) and who were receiving a prednisone dose (or its corticosteroid equivalent) of 1 to 10 mg/day at the time they entered the study. […]
(§3) Serum testosterone, estradiol and cytokine profiles were measured at baseline and at last visit (i.e., after 24 weeks). Different serum cytokines including […], IL-2, IFN-γ, IL-4, and […] in the subjects were measured using ELISA kits (R&D, Minneapolis, Minn.) according to the manufacturer's instructions.
(§4) Comparisons between groups were done through an independent t-test, while comparisons within groups were done through a paired t-test. All statistical tests were evaluated at a 0.05 level of significance.

estradiol = assay: Hormone determination: serum estradiol in SLE study; assay type: in vivo, human; conditions: 200 mg/day DHEA, 24 weeks
Procedure: See, Chang et al., Arthritis Rheum., 2002, 46(11):2924-27. The subjects enrolled in the study were adult women with SLE according to American College of Rheumatology (ACR) criteria (see, e.g., Tan, et al., Arthritis Rheum., 1982, 25:1271-7) and who were receiving a prednisone dose (or its corticosteroid equivalent) of 1 to 10 mg/day at the time they entered the study. Subjects selected for the study had to have active SLE, as defined by a Systemic Lupus Activity Measure (SLAM) score of ≧7, see, e.g., Liang, et al., Arthritis Rheum., 1989, 32:1107-18, and a baseline Systemic Lupus Erythematosus Disease Activity Index (SLEDAI) score ≧2. See, Bombardier, et al., Arthritis Rheum., 1992, 35:630-40.
Subjects that were under treatment with dydroxychloroquine, azathioprine, methotrexate, or cyclophosphamide or a combination thereof, had to have been on a stable regimen with no change in dose and drug combination for at least 6 weeks prior to entry into the study. Subjects who were receiving androgens, immunoglobulins, cyclosporine A, or other immunosuppressive agents (except those noted) were excluded from the study.
as §3

[3] = tested on: NZB/NZW mouse model of SLE; conditions: cited from earlier work
IL-10 = assay: Serum IL-10 by ELISA in randomized, double-blind, placebo-controlled study in women with active SLE; assay type: in vivo, human
Procedure: as §1, §2, §3, §4

[4] = tested on: human marrow and mononuclear cells; conditions: in vitro; cited from earlier work
[5] = tested on: peripheral blood mononuclear cells (PBMCs) from adult male lupus patients; conditions: pre-incubation with DHEA, concanavalin A stimulated PBMCs; cited from earlier work
Th2 cells = Th2 cells stimulated by retrovirus infection; cited from earlier work
[6] = tested on: patients with mild to moderate SLE; conditions: cited from earlier work
[7] = 200 mg/day for 12 months, 381 women with mild/moderate SLE
[8] = oral daily doses of 200 mg, mild to moderate SLE, van Vollenhoven et al.

Q: Which results are given for C[C@]12CC[C@H](O)CC1=CC[C@@H]1[C@@H]2CC[C@]2(C)C(=O)CC[C@@H]12 [DHEA form II, dehydroepiandrosterone]?
A: Rate of absorption [1]: rapid rate of absorption (greater than the form I polymorph); Stability [2]: stable under typical ambient conditions

Q: What does the source list for C[C@]12CC[C@H](O)CC1=CC[C@@H]1[C@@H]2CC[C@]2(C)C(=O)CC[C@@H]12 [DHEA, dehydroepiandrosterone]?
A: IL-1β after treatment (IL-1β): 9.20 ± 6.49 pg/mL; Estradiol change at last visit, mean (estradiol; baseline mean 123): -48 pg/mL; Estradiol change at last visit, median (estradiol; baseline median 104): -39 pg/mL; Median decrease in estradiol (estradiol; placebo 31.5): 39.3 pg/mL; Onset of disease and mortality [3]: significantly delayed onset of disease and a reduction in mortality; Effect on IL-10 level (in words) (IL-10; 200 mg/day DHEA for 24 weeks, women with SLE, from baseline): significant reduction; also recorded: significant IL-10 suppression; IL-10 after treatment (IL-10; serum, last visit after 24 weeks of 200 mg/day DHEA orally, mean ± SD, n = 15, before treatment 9.21 ± 6.75, p=0.045 vs placebo, p=0.029 vs baseline): 1.89 ± 1.47 pg/mL; Secretion of IL-6 [4]: reduce secretion of IL-6; IL-4 production [5]: reduced the IL-4 production; Production of IL-6 and tumor necrosis factor alpha (Th2 cells): suppressed the production of cytokines IL-6 and tumor necrosis factor alpha; Bone mineral density [6, 7]: prevented loss of bone mineral density in a significantly greater proportion of patients than placebo; SLE disease and symptoms [6, 7]: improved or stabilized SLE disease and its symptoms without clinical deterioration; Prednisone reduction ([6]; 200 mg/day, women with active lupus, phase II/III, Petri et al. 2002): enabled prednisone reduction to physiologic levels in a significantly greater proportion of patients than placebo; Steroid-sparing effect and flares [6, 8]: may have steroid-sparing effects and reduce flares; Tolerability [6, 8]: well-tolerated; Tolerability ([6]; women with lupus, Chang et al. 2002): well-tolerated

Q: For C[C@]12CC[C@H](O)CC1=CC[C@@H]1[C@@H]2CC[C@]2(C)C(=O)CC[C@@H]12 [DHEA form I, dehydroepiandrosterone], which Stability [2] is on record?
A: highly stable
